Test results taken from patent US11492335B2, “Aryl or heteroaryl triazolone derivatives or salts thereof, or pharmaceutical compositions comprising the same” (YUHAN CORPORATION, priority 2018, dated 2022).
Counter-ions that a name gives are not always drawn. Like-named read-outs stand apart in the source and are kept apart here.

Assays:
[1] = target: T1, recombinant human VAP-1 (Homo sapiens, UniProt Q16853); test: Activity on recombinant human VAP-1, Amplex Red HRP-coupled hydrogen peroxide assay, benzylamine substrate; type: biochemical; conditions: recombinant human VAP-1, benzylamine substrate, read-out: Inhibitory Activity (IC50, nM) human VAP-1
T1 construct: purchased R&D systems
T1 sequence (Q16853 1-763): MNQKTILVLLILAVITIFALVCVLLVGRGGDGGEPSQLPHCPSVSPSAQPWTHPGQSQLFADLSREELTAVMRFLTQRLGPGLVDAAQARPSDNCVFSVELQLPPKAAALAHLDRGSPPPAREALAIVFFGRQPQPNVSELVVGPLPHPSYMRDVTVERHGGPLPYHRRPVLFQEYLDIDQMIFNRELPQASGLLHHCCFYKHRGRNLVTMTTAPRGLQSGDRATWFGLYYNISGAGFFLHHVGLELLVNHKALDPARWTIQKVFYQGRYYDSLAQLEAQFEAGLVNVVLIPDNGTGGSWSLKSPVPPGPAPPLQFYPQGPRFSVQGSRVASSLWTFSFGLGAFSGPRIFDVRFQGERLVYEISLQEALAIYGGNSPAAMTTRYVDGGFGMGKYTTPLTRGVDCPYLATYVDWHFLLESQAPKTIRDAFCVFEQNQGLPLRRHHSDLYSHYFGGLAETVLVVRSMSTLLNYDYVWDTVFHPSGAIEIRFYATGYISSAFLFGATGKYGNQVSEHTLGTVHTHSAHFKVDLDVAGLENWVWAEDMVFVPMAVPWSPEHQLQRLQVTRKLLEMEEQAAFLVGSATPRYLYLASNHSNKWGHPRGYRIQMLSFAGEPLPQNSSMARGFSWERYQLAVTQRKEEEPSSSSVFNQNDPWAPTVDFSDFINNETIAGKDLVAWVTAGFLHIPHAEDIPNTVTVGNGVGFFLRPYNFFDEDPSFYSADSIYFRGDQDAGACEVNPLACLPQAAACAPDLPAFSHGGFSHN
Experimental: (§1) The compounds according to the present technology were evaluated in terms of activity on recombinant human VAP-1 (R&D systems) by measuring the level of hydrogen peroxide in horseradish peroxidase (HRP)-coupled reaction using Amplex Red Hydrogen Peroxide Assay Kit (Molecular Probes, Invitrogen, USA). The experiment was carried out at room temperature using benzylamine as a substrate. In the HRP-coupled reaction, hydrogen peroxide oxidation of 10-acetyl-3,7-dihydroxyphenoxazine (Amplex Red reagent) produces resorufin, which is a highly fluorescent compound. Briefly, the test compound was dissolved in dimethyl sulfoxide (DMSO) at a concentration of 20 mM. The dose-response assessment was made by 1:3 serial dilution in DMSO, thereby creating an 8 point curve. The concentration of the upper part was controlled according to the efficacy of the compounds, followed by dilution with a reaction buffer solution to obtain a final DMSO concentration less than 1%. To each well of a 96 black well plate, human VAP-1 purified in 50 mM sodium phosphate buffer solution (pH7.4) was added. The test compounds dissolved in DMSO were incubated with the human VAP-1 enzymes at 37° C. for 30 minutes. After 30-minute incubation, each well is added with a reaction mixture containing 200 uM Amplex Red reagent prepared from 50 mM sodium phosphate buffer solution (pH 7.4), 1 mM benzylamine, and 1 U/mL HRP. Fluorescence intensity was measured at several time points during 1-2 hours using a microplate reader (Flexstation3, Molecular Devices) under the wavelength condition exciting at 544 nm and reading the emission at 590 nm. The inhibitory effect of the compounds was measured as a decrease (%) in the signal rate as compared to the control group without any inhibitor (only diluted DMSO). Data was fixed to a logistic model with four variables and IC50 value was calculated using GraphPad Prism program.

[2] = target: T2, recombinant human DAO (diamine oxidase) (Homo sapiens, UniProt P19801); test: Activity on recombinant human DAO, Amplex Red method, 1 mM putrescine substrate; type: biochemical; conditions: recombinant human DAO, read-out: Inhibitory Activity (IC50, nM) DAO
T2 construct: purchased R&D systems
T2 sequence (P19801 20-751): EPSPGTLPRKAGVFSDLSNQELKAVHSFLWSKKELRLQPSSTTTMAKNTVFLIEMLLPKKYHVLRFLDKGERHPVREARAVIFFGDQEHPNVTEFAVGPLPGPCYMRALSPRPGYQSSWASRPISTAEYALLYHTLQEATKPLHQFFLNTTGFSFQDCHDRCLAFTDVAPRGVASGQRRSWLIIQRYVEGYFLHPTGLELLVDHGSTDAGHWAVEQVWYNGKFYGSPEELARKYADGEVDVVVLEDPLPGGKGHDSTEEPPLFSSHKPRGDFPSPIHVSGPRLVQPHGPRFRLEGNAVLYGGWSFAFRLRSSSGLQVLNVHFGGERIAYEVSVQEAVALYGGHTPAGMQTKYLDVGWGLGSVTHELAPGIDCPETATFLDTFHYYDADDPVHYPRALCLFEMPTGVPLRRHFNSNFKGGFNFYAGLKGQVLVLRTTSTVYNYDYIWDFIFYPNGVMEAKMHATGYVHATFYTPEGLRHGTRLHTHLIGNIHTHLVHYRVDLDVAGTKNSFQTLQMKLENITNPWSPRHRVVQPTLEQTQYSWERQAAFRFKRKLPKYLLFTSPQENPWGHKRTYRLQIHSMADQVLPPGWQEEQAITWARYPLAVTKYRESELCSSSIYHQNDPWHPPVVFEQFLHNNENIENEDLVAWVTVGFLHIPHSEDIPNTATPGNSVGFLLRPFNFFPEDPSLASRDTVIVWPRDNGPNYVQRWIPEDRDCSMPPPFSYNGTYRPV
Experimental: as §1
In addition, the compounds according to the present technology were evaluated in terms of activity on a recombinant human MAO-A (monoamine oxidase-A, Sigma-Aldrich) and a recombinant human MAO-B (monoamine oxidase-B, Sigma-Aldrich) by using as substrates, 0.5 mM tyramine and 1 mM benzylamine, respectively, with a method similar to the activity evaluation method for recombinant human VAP-1. The compounds according to the present technology were also evaluated in terms of activity on a recombinant human DAO (diamine oxidase, R&D systems) by using as a substrate 1 mM putrescine with a method similar to the activity evaluation method for recombinant human VAP-1.

[3] = 1 mM putrescine, * = between 10 and 100 nM, ** = between 300 and 1000 nM

| Structure (SMILES) | IC50 ([1]; 30 min preincubation at 37° C.) | IC50 [2, 3] | IC50 [1] | IC50 ([2]; 1 mM putrescine substrate) |
| --- | --- | --- | --- | --- |
| Cc1cc(-c2ccc3nonc3c2)ncc1-n1cnn(C/C(=C/F)CN)c1=O [Example 125, 2-[(2E)-2-(aminomethyl)-3-fluoroprop-2-en-1-yl]-4-[6-(2,1,3-benzooxadiazol-5-yl)-4-methylpyridin-3-yl]-2,4-dihydro-3H-1,2,4-triazol-3-one] | 1.2 nM | < 100 nM |  |  |
| NC/C(=C/F)Cn1ncn(-c2ccc(Br)cc2)c1=O [Example 1, 2-[(2Z)-2-(aminomethyl)-3-fluoroprop-2-en-1-yl]-4-(4-bromophenyl)-2,4-dihydro-3H-1,2,4-triazol-3-one] | 17 nM |  |  |  |
| NC/C(=C/F)Cn1ncn(-c2cccc(-c3cccc(-c4nnc[nH]4)c3)c2)c1=O [Example 60, 2-[(2Z)-2-(aminomethyl)-3-fluoroprop-2-en-1-yl]-4-[3′-(4H-1,2,4-triazol-3-yl)biphenyl-3-yl]-2,4-dihydro-3H-1,2,4-triazol-3-one] | 1.3 nM | < 100 nM |  |  |
| CC(=O)Nc1cc(-c2cccc(-n3cnn(C/C(=C/F)CN)c3=O)c2C)ccn1 [Example 109, N-[4-(3-{1-[(2E)-2-(aminomethyl)-3-fluoroprop-2-en-1-yl]-5-oxo-1,5-dihydro-4H-1,2,4-triazol-4-yl}-2-methylphenyl)pyridin-2-yl]acetamide] | 8.1 nM | 740 nM |  |  |
| NC/C(=C\F)Cn1ncn(-c2cccc(-c3cncc4ccccc34)c2)c1=O [Example 104, 2-[(2E)-2-(aminomethyl)-3-fluoroprop-2-en-1-yl]-4-[3-(isoquinolin-4-yl)phenyl]-2,4-dihydro-3H-1,2,4-triazol-3-one hydrochloride] | 3 nM | 54 nM |  |  |
| Cc1cc(-n2cnn(C/C(=C\F)CN)c2=O)ncc1Br [Example 33, 2-[(2Z)-2-(aminomethyl)-3-fluoroprop-2-en-1-yl]-4-(5-bromo-4-methylpyridin-2-yl)-2,4-dihydro-3H-1,2,4-triazol-3-one hydrochloride] | 31 nM |  |  |  |
| Cc1cc(-c2cccc(-c3nc[nH]n3)c2)ncc1-n1cnn(C/C(=C/F)CN)c1=O [Example 122, 2-[(2E)-2-(aminomethyl)-3-fluoroprop-2-en-1-yl]-4-{4-methyl-6-[3-(1H-1,2,4-triazol-3-yl)phenyl]pyridin-3-yl}-2,4-dihydro-3H-1,2,4-triazol-3-one] | 0.77 nM | < 100 nM |  |  |
| CS(=O)(=O)c1ccc(-c2cccc(-n3cnn(C/C(=C\F)CN)c3=O)c2)cc1 [Example 53, 2-[(2Z)-2-(aminomethyl)-3-fluoroprop-2-en-1-yl]-4-[4′-(methylsulfonyl)biphenyl-3-yl]-2,4-dihydro-3H-1,2,4-triazol-3-one hydrochloride] | 2.5 nM | < 30 nM |  |  |
| Cc1cc(Br)cnc1-n1cnn(C/C(=C\F)CN)c1=O [Example 31, 2-[(2Z)-2-(aminomethyl)-3-fluoroprop-2-en-1-yl]-4-(5-bromo-3-methylpyridin-2-yl)-2,4-dihydro-3H-1,2,4-triazol-3-one hydrochloride] | 47 nM |  |  |  |

Next, values leading:

| IC50 ([1]; 30 min preincubation at 37° C.) | IC50 [2, 3] | IC50 [1] | IC50 ([2]; 1 mM putrescine substrate) | Structure (SMILES) |
| --- | --- | --- | --- | --- |
|  |  | 0.94 nM | 0.086 nM | CC(=O)Nc1cc(-c2cnc(-n3cnn(C/C(=C/F)CN)c3=O)s2)ccn1 [Example 231, N-[4-(2-{1-[(2E)-2-(aminomethyl)-3-fluoroprop-2-en-1-yl]-5-oxo-1,5-dihydro-4H-1,2,4-triazol-4-yl}-1,3-thiazol-5-yl)pyridin-2-yl]acetamide] |
|  |  | 23 nM |  | NC/C(=C\F)Cn1ncn(-c2cccc(-c3ccc(-c4noc(=O)[nH]4)cc3)n2)c1=O [Example 182, 3-[4-(6-{1-[(2E)-2-(aminomethyl)-3-fluoroprop-2-en-1-yl]-5-oxo-1,5-dihydro-4H-1,2,4-triazol-4-yl}pyridin-2-yl)phenyl]-1,2,4-oxadiazol-5(4H)-one hydrochloride] |
| 8.2 nM | 4200 nM |  |  | Cc1cc(N2CCNCC2)cnc1-n1cnn(C/C(=C/F)CN)c1=O [Example 131, 2-[(2E)-2-(aminomethyl)-3-fluoroprop-2-en-1-yl]-4-[3-methyl-5-(piperazin-1-yl)pyridin-2-yl]-2,4-dihydro-3H-1,2,4-triazol-3-one] |
|  |  | 1.7 nM | 1.2 nM | NC/C(=C\F)Cn1ncn(-c2ncc(-c3ccc4c(c3)NC(=O)C4)s2)c1=O [Example 233, 6-(2-{1-[(2E)-2-(aminomethyl)-3-fluoroprop-2-en-1-yl]-5-oxo-1,5-dihydro-4H-1,2,4-triazol-4-yl}-1,3-thiazol-5-yl)-1,3-dihydro-2H-indol-2-one] |
|  |  | 0.53 nM | 2.7 nM | NC/C(=C\F)Cn1ncn(-c2ncc(-c3cccc(-c4nnn[nH]4)c3)s2)c1=O [Example 230, 2-[(2E)-2-(aminomethyl)-3-fluoroprop-2-en-1-yl]-4-{5-[3-(1H-tetrazol-5-yl)phenyl]-1,3-thiazol-2-yl}-2,4-dihydro-3H-1,2,4-triazol-3-one] |
| 3.3 nM | 1400 nM |  |  | Cc1cc(-c2cccc(-c3nnn[nH]3)c2)cnc1-n1cnn(C/C(=C/F)CN)c1=O [Example 144, 2-[(2E)-2-(aminomethyl)-3-fluoroprop-2-en-1-yl]-4-{3-methyl-5-[3-(1H-tetrazol-5-yl)phenyl]pyridin-2-yl}-2,4-dihydro-3H-1,2,4-triazol-3-one] |
| 3.2 nM | 520 nM |  |  | Cc1cc(-c2ccc(-c3nnc[nH]3)cc2)cnc1-n1cnn(C/C(=C\F)CN)c1=O [Example 135, 2-[(2Z)-2-(aminomethyl)-3-fluoroprop-2-en-1-yl]-4-{3-methyl-5-[4-(4H-1,2,4-triazol-3-yl)phenyl]pyridin-2-yl}-2,4-dihydro-3H-1,2,4-triazol-3-one] |
| 0.62 nM | 6100 nM |  |  | Cc1cc(-c2ccc(-c3nnc[nH]3)cc2)cnc1-n1cnn(C/C(=C/F)CN)c1=O [Example 136, 2-[(2E)-2-(aminomethyl)-3-fluoroprop-2-en-1-yl]-4-{3-methyl-5-[4-(4H-1,2,4-triazol-3-yl)phenyl]pyridin-2-yl}-2,4-dihydro-3H-1,2,4-triazol-3-one] |
